From patent US9205068B2 (priority 2008, dated 2015)
Where “and” joins values, the source holds several entries; their conditions need not be identical. Identical values can stand only once.

Columns and labels:
[1] = system: CTA1 dislocation from the ER to the cytosol of HeLa cells; format: cell-based
Shiga toxin = format: cell-based
[2] = target: cell-binding B subunit of CT (Vibrio cholerae serotype O1, UniProt P01556)
CT = conditions: in vivo
[3] = target: catalytic A1 polypeptide of cholera toxin (CTA1) (Vibrio cholerae serotype O1, UniProt P01555); format: binding
Chain of catalytic A1 polypeptide of cholera toxin (CTA1) (P01555 19-212 limits assumed): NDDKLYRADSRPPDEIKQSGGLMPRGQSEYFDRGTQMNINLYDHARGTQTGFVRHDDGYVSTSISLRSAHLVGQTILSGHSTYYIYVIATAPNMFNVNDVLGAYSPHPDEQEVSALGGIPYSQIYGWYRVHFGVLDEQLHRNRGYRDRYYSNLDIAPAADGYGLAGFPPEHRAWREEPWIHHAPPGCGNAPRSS

[4] = in vivo, po; cited from earlier work
[5] = system: CT intoxication of CHO cells; format: cell-based
[6] = target: catalytic subunit of pertussis toxin (PTS1) (Bordetella pertussis, UniProt P04977); format: binding, B. pertussis; conditions: PTS1, 100 μM PBA
Chain of catalytic subunit of pertussis toxin (PTS1) (P04977 35-269 limits assumed): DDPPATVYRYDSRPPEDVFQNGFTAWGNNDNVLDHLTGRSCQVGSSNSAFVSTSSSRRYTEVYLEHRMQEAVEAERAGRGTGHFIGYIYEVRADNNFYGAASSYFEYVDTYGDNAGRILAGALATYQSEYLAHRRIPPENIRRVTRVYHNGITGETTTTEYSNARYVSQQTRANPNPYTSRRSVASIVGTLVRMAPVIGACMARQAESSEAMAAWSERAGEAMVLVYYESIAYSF

His6-tagged CTA1 = His6-tagged CTA1 (Vibrio cholerae serotype O1, UniProt P01555); format: binding
Chain of His6-tagged CTA1 (P01555 19-212 limits assumed): as the sequence (P01555 19-212 limits assumed) above

20S proteasome = format: biochemical
[7] = cited from earlier work
[8] = system: forskolin-stimulated adenylate cyclase activity; format: cell-based
thermolysin = thermolysin (Bacillus thermoproteolyticus, UniProt P00800); format: biochemical
Chain of thermolysin (P00800 233-548): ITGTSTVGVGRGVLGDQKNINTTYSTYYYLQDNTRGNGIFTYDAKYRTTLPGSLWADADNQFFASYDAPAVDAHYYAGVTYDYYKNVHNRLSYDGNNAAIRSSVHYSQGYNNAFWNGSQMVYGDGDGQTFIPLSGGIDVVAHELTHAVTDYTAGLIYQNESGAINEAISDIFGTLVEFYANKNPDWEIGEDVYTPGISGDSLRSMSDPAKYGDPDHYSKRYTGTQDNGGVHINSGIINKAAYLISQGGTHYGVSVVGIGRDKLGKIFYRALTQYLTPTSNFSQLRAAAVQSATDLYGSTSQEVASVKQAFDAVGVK

[9] = system: CTA1 secretion from intoxicated HeLa cells; format: cell-based
[10] = target: interaction between GRP94 and CTA1 (Homo sapiens, UniProt P14625); format: binding
Chain of interaction between GRP94 and CTA1 (P14625 22-803 limits assumed): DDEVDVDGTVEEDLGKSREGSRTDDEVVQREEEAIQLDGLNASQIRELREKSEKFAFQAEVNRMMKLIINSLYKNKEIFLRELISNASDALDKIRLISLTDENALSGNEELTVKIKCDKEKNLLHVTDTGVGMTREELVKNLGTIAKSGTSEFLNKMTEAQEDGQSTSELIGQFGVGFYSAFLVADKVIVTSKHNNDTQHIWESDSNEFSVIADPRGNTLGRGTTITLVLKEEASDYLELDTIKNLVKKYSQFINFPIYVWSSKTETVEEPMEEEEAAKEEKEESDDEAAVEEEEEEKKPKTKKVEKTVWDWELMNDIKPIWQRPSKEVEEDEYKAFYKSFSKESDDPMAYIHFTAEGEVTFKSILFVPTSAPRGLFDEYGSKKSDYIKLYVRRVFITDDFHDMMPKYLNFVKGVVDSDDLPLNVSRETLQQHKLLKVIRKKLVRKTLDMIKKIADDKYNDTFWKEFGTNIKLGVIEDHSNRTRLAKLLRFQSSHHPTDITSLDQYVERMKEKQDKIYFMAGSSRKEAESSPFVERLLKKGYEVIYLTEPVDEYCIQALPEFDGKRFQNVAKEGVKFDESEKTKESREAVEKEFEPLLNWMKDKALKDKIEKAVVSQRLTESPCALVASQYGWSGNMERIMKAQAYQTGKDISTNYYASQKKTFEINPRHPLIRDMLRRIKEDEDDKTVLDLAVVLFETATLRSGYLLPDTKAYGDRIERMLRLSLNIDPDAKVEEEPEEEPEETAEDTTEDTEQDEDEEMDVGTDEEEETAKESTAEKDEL

Chain of cell-binding B subunit of CT (P01556 22-124 limits assumed): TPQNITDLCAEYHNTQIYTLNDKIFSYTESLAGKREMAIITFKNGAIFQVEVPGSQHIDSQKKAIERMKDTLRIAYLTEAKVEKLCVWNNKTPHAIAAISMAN

With `O=C([O-])CCCc1ccccc1.[Na+]` [PBA, sodium 4-phenylbutyrate] the “cytosolic pool of CTA1 by SPR” value [1] was “less CTA1 was found in the cytosol”, the “protection against Shiga toxin” value (Shiga toxin) was “do not protect cultured cells against Shiga toxin” and the “binding to cell-binding B subunit of CT” value [2] was “does not bind”. The “CT activity in the ileal loop test system” value (CT) was “blocks CT activity in the ileal loop test system”, the “Melting temperature (Tm) Fluorescence” value [3] was 37.5 °C and 38.5 °C and 41.0 °C and the “Melting temperature (Tm) Near UV” value [3] was 33.0 °C and 35.0 °C. The PBA serum levels [4] was 600-1,700 uM, the “CT activity against cultured cells” value [5] was “blocks CT activity against cultured cells in a dose-dependent manner” and the “concentration effective against CT intoxication of cultured cells” value [5] was 10 to 100 µM. For the same compound, the “transition temperature Far UV” value [6] was 33.0 °C and the “transition temperature Near UV” value [6] was 36.0 °C.

In the case of `OCC(O)CO` [glycerol], the “CTA1 secondary structure Tm” value (His6-tagged CTA1) is reported as 39±0.5 °C, the “CTA1 tertiary structure transition temperature (Tm)” value (His6-tagged CTA1) is reported as 39.5±1 °C and the “initial secondary structure retained at 37° C.” value (His6-tagged CTA1) is reported as about 60%. For the same compound, the “initial tertiary structure retained at 37° C.” value (His6-tagged CTA1) was 58%, the “cytosolic pool of CTA1 by SPR” value [1] was “failed to generate a positive cytosolic signal for CTA1” and the “cytosolic pool of CTA1 by SPR, time course” value [1] was “could not be detected”. For the same compound, the “reduction in cytosolic CTA1” value [1] was 3 fold and 5 fold, the “total cellular pool of CTA1 present in the cytosolic fraction” value [1] was 7±4% and the “a-casein degradation by the 20S proteasome” value (20S proteasome) was “did not inhibit a-casein degradation by the 20S proteasome”. For the same compound, the “t1/2 of equilibration across the plasma membrane” value [7] was 5 min, the “cAMP relative to cells treated with forskolin alone” value [8] was 105% and the “CT concentration for 50% maximal response” value [5] was 35 ng of CT/ml. The “CT intoxication (cAMP response)” value [5] was “resistant to CT”, the “thermolysin-mediated proteolysis of a-casein” value (thermolysin) was “did not prevent the thermolysin-mediated proteolysis of a-casein” and the “CTA1 secreted into medium versus untreated cells” value [9] was “twice as much CTA1 as the untreated control cells”.

In the case of N-ethylcarboxamidoadenosine [NECA], the “cytosolic CTA1 by Western blot” value [1] is reported as “unaffected by NECA treatment”, the “cytosolic pool of CTA1 by SPR” value [1] is reported as “response comparable to the response from cells intoxicated in the absence of drug treatment” and the “CT intoxication (cAMP response)” value [5] is reported as “same response to CT as the untreated cells”. The “effect on GRP94 binding to CTA1” value [10] was “blocked by both GA and NECA”.

In the case of brefeldin A [BfA], the “cytosolic pool of CTA1 by SPR” value [1] is reported as “No signal” and the “CTA1 in the medium by SPR” value [9] is reported as “could not detect an appreciable amount of CTA1 in the medium”.
